The values below come from ChEMBL document CHEMBL1137662, “Effect of oral treatment with hexadecyloxypropyl-[(S)-9-(3-hydroxy-2- phosphonylmethoxypropyl)adenine] [(S)-HPMPA] or octadecyloxyethyl-(S)-HPMPA on cowpox or vaccinia virus infections in mice” (Antimicrob Agents Chemother, 2007).

Usually EC50 stands for the concentration needed to bring the measured effect to its halfway point. In general, CC50 refers to the concentration at which the toxic effect on the cells reaches its halfway point. Higher therefore signals lower toxicity to the cells. The term bioavailability denotes dose-corrected exposure relative to a reference, in per cent.

Structures are written as SMILES. The source made the active and inactive calls. No cut-off for these calls is given here. A value given as a limit tells only on which side of the number the result lay.

Data set [1] relates to Vaccinia virus. Kind of data set: Antiviral activity against Vaccinia virus WR infected BALB/c mouse assessed as mortality at 15 mg/kg, ip treated for 5 days after 48 hrs of viral inoculation. In kind it is functional, Orthopoxvirus vaccinia. The settings on record: route intraperitoneal.
Data set [2] can be described thus: Selectivity index, ratio of CC50 for HFF cells to EC50 for Cowpox virus Brighton. Format: toxicity, cell-based. The settings on record: human, read-out: Ratio CC50/EC50.
Data set [3] concerns Vaccinia virus. Kind of data set: Antiviral activity against Vaccinia virus Copenhagen in HFF cells assessed as reduction of viral replication after 3 days. In kind it is functional, organism-based. The settings on record: Orthopoxvirus vaccinia, 72 h.
Data set [4] can be described thus: Selectivity index, ratio of CC50 for HFF cells to EC50 for Vaccinia virus Copenhagen. In kind it is toxicity, cell-based. The settings on record: human, read-out: Ratio CC50/EC50.
Data set [5] concerns Vaccinia virus. Kind of data set: Antiviral activity against Vaccinia virus WR infected BALB/c mouse assessed as mortality at 10 mg/kg, ip treated for 5 days after 24 hrs of viral inoculation. Format: functional, Orthopoxvirus vaccinia. As to conditions: route intraperitoneal.
Data set [6] concerns Cowpox virus. Kind of data set: Antiviral activity against Cowpox virus Brighton in HFF cells assessed as reduction of viral replication after 3 days. Format: functional, organism-based, Cowpox virus (Brighton Red). As to conditions: 72 h.
Data set [7] has as its system Cowpox virus. The experiment in a line: Antiviral activity against Cowpox virus Brighton infected BALB/c mouse assessed as mortality at 10 mg/kg, ip treated for 5 days after 72 hrs of viral inoculation. In kind it is functional, Cowpox virus (Brighton Red). The settings on record: route intraperitoneal.
Data set [8] can be described thus: Selectivity index, ratio of CC50 for HFF cells to EC50 for Vaccinia virus WR. In kind it is toxicity, cell-based. The settings on record: human, read-out: Ratio CC50/EC50.
For data set [9], the system named is Vaccinia virus. The experiment in a line: Antiviral activity against Vaccinia virus WR infected BALB/c mouse assessed as mortality at 10 mg/kg, ip treated for 5 days after 48 hrs of viral inoculation. In kind it is functional, Orthopoxvirus vaccinia. As to conditions: route intraperitoneal.
Data set [10] concerns Vaccinia virus. Kind of data set: Antiviral activity against Vaccinia virus WR infected BALB/c mouse assessed as mortality at 15 mg/kg, ip treated for 5 days after 24 hrs of viral inoculation. In kind it is functional, Orthopoxvirus vaccinia. As to conditions: route intraperitoneal.
Data set [11] has as its system Cowpox virus. The experiment in a line: Antiviral activity against Cowpox virus Brighton infected BALB/c mouse assessed as mortality at 10 mg/kg, ip treated for 5 days after 24 hrs of viral inoculation. In kind it is functional, Cowpox virus (Brighton Red). As to conditions: route intraperitoneal.
Data set [12] relates to Vaccinia virus. The experiment in a line: Antiviral activity against Vaccinia virus WR infected BALB/c mouse assessed as mortality at 10 mg/kg, ip treated for 5 days after 72 hrs of viral inoculation. As to conditions: route intraperitoneal. Format: functional, Orthopoxvirus vaccinia.
Data set [13] concerns Vaccinia virus. Kind of data set: Antiviral activity against Vaccinia virus WR infected BALB/c mouse assessed as reduction of viral titer in lung at 30 mg/kg, po treated for 5 days after 24 hrs of viral inoculation. In kind it is functional, organism-based. Details: dose 30 mg/kg. As to conditions: Orthopoxvirus vaccinia.
A short description of data set [14]: Cytotoxicity against HFF cells after 7 days. In kind it is cell-based. As to conditions: human.
Data set [15] relates to Vaccinia virus. The experiment in a line: Antiviral activity against Vaccinia virus WR infected BALB/c mouse assessed as mortality at 15 mg/kg, ip treated for 5 days after 72 hrs of viral inoculation. The settings on record: route intraperitoneal. In kind it is functional, Orthopoxvirus vaccinia.
Data set [16] relates to Cowpox virus. The experiment in a line: Antiviral activity against Cowpox virus Brighton infected BALB/c mouse assessed as mean death day at 10 mg/kg, po treated for 5 days after 48 hrs of viral inoculation. Format: functional, Cowpox virus (Brighton Red).
The test system of data set [17] is Cowpox virus. The experiment in a line: Antiviral activity against Cowpox virus Brighton infected BALB/c mouse assessed as mortality at 10 mg/kg, ip treated for 5 days after 48 hrs of viral inoculation. Format: functional, Cowpox virus (Brighton Red). The settings on record: route intraperitoneal.
Data set [18] deals with Vaccinia virus. The experiment in a line: Antiviral activity against Vaccinia virus WR in HFF cells assessed as reduction of viral replication after 3 days. The settings on record: Orthopoxvirus vaccinia, 72 h. In kind it is functional, organism-based.
A short description of data set [19]: Oral bioavailability in Swiss Webster mouse at 10 mg/kg. As to conditions: in vivo. In kind it is ADME, organism-based.

On to `Nc1ccn(C[C@@H](CO)OCP(=O)(O)O)c(=O)n1.O.O` [CIDOFOVIR], for which the Activity in the data set with Vaccinia virus [1] was 100%; with Vaccinia virus [5], 0%; in the data set on Cowpox virus [7] it was 0%; in the data set on Vaccinia virus [9], 0%; in the data set with Vaccinia virus [10] it was 0%; in the data set with Cowpox virus [11], 0%. Further, the Activity in the data set with Vaccinia virus [12] turned out to be 143%; in the data set on Vaccinia virus [15], 0%; in the data set with Cowpox virus [16], 11 days; with Cowpox virus [17], 0%. For the same compound, the selectivity ratio is greater than 9.1 in [2], greater than 12.2 in [4] and greater than 10.9 in [8]. In addition, the EC50 in the data set on Vaccinia virus [3] came out at 26 µM; in the data set with Cowpox virus [6] it was 35 µM. In addition, in the data set on Vaccinia virus [13], the result was Active. The compound also showed a CC50 at 168 h in data set [14] greater than 317 µM.
Take `CCCCCCCCCCCCCCCCOCCCOP(=O)(O)CO[C@H](CO)Cn1ccc(N)nc1=O` [BRINCIDOFOVIR]: the EC50 in the data set with Vaccinia virus [18] was 1.1 µM; in the data set on Vaccinia virus [3], 0.8 µM; in the data set on Cowpox virus [6], 0.6 µM. For the same compound, the selectivity ratio in data set [2] is 52; in data set [4] it was 39; in [8] it was 28. The same compound registered a CC50 at 168 h in [14] of 31 µM.
As for `Nc1ncnc2c1ncn2C[C@@H](CO)OCP(=O)(O)O`, the half-maximal effective concentration (EC50) came out at 6.5 µM with Vaccinia virus [18], 2.7 µM in the data set on Vaccinia virus [3] and 4 µM in the data set on Cowpox virus [6]. Further, the figures for the selectivity ratio in data set [2], in data set [4] and in data set [8] were greater than 72, greater than 107 and greater than 44, respectively. In [19], this compound returned a bioavailability of 24%. In addition, the CC50 at 168 h in data set [14] is greater than 289 µM.
